“And” between values parts separate entries of the source, which are not always exact repeats. Equal values may be shown once.
Tests used:
[1] = target: T1, AKR1C2 (Homo sapiens (Human), UniProt P52895); assay: S-tetralol oxidation assay, AKR1C2; assay type: biochemical; settings: NADP+ dependent oxidation of S-tetralol, S-tetralol at Km; Table 1
Protocol: Enzyme Purification: Homogenous recombinant enzymes AKR1C1-4 were prepared and purified (Burczynski, et al., 1998, Biochemistry 37:6781-6790). Enzymes were purified to constant specific activity and their purity established by SDS-PAGE. All AKR enzymes were stored at −80° C. in 20 mM potassium phosphate buffer pH 7.0 containing 30% glycerol, 1 mM EDTA, and 1 mM β-mercaptoethanol. Under standard assay conditions, the specific activity of AKR1C1 for the NAD^+ dependent oxidation of 1-acenaphthenol (Sigma) was 2.0 μmol min^−1 mg^−1. The specific activities of AKR1C2 and AKR1C3 for the NAD^+ dependent oxidation of S-tetralol (Sigma) were 1.5 and 2.0 μmol min^−1 mg^−1, respectively, and the specific activity of AKR1C4 for the NAD^+ dependent oxidation of androsterone (Steraloids) was 0.3 μmol min^−1 mg^−1. The specific activities of AKR1C enzymes were determined by measuring the formation of NADH at 340 nm using a Beckman DU640 spectrophotometer. A typical assay solution contained 100 mM potassium phosphate pH 7.0, 2.3 mM NAD^+, 200 μM 1-acenaphthenol for AKR1C1, 3.0 mM Stetralol for AKR1C2 and 1C3, and 75 μM androsterone for AKR1C4, 4% acetonitrile (v/v). The mixtures were incubated at 25° C. (AKR1C1 and 1C4) or 37° C. (AKR1C2 and 1C3) for 3 min, followed by adding a serial dilution of enzyme solution to a final volume of 1 mL to initiate the reaction. After continuously monitoring for 5 min, the increase in UV absorption using different concentrations of enzyme were recorded to calculate the initial velocity of substrate oxidation and determine enzyme-specific activity.
the inhibitory potency of the individual compounds against the AKR1C isoforms was determined by monitoring the NADP^+ dependent oxidation of S-tetralol catalyzed by the AKR1C enzymes using substrate concentrations at their Km values in the presence and absence of varying concentration of the inhibitors (Adeniji, et al., 2012, J Med Chem 55:2311-2323). Reaction systems (200 μL) contained 100 mM potassium phosphate buffer (pH 7.0), 4% DMSO, 200 μM NADP^+, a serial dilution of compounds, S-tetralol, and AKR1C enzymes. […] The concentration of AKR1C1, 1C2, 1C3, and 1C4 was 111, 86, 95, and 552 nM, respectively. Reagents were mixed and incubated at 37° C. for 10 min followed by adding AKR1C enzymes to initiate the reaction. […] To determine the pattern of inhibition, five fixed concentrations of S-tetralol were used and four different concentrations of inhibitor were used and a gobal fit of the equations for COMP, NONCOMP and UNCOMP to the data was applied using Grafit.

[2] = target: T2, AKR1C3 (Homo sapiens (Human), UniProt P42330); assay: S-tetralol oxidation assay, AKR1C3; assay type: biochemical
Protocol: Enzymes were purified to constant specific activity and their purity established by SDS-PAGE. All AKR enzymes were stored at −80° C. in 20 mM potassium phosphate buffer pH 7.0 containing 30% glycerol, 1 mM EDTA, and 1 mM β-mercaptoethanol. […] The specific activities of AKR1C enzymes were determined by measuring the formation of NADH at 340 nm using a Beckman DU640 spectrophotometer. […] The mixtures were incubated at 25° C. (AKR1C1 and 1C4) or 37° C. (AKR1C2 and 1C3) for 3 min, followed by adding a serial dilution of enzyme solution to a final volume of 1 mL to initiate the reaction. After continuously monitoring for 5 min, the increase in UV absorption using different concentrations of enzyme were recorded to calculate the initial velocity of substrate oxidation and determine enzyme-specific activity.
Reagents were mixed and incubated at 37° C. for 10 min followed by adding AKR1C enzymes to initiate the reaction. […] To determine the pattern of inhibition, five fixed concentrations of S-tetralol were used and four different concentrations of inhibitor were used and a gobal fit of the equations for COMP, NONCOMP and UNCOMP to the data was applied using Grafit.

[3] = target: COX-2 (Mus musculus, UniProt Q05769); assay: COX-2 inhibition; assay type: biochemical
[4] = target: T1, AKR1C2; assay: AKR1C2 catalyzed NADPH dependent reduction of 5α-DHT; assay type: biochemical; settings: 5α-DHT reduction, <100 μM concentrations
Protocol: Compounds were tested for their ability to inhibit the AKR1C3 catalyzed, reduction of [^3H]-Δ^4-AD and the AKR1C2 catalyzed reduction of [^3H]-5α-DHT. Compounds were incubated with purified recombinant enzyme and radiolabeled steroid in 100 mM phosphate buffer pH7.0 and 4% DMSO at 37° C. The reaction was initiated by the addition of 1 mM NADPH, aliquots were removed over time and subsequently quenched by the addition of ice cold ethyl acetate. The ethyl acetate fraction was extracted and dried in vacuum. Steroid reference standards and extracts were dissolved in 50 μl ethyl acetate and applied to LK6D Silica TLC plates (Whatman Inc., Clifton, N.J.). TLC plates were developed using a dichloromethane/ethyl acetate (80:20 v/v) solution and were scanned with a Bioscan System 200 plate reader (Washington, D.C.). The percentage of radioactivity in the product peak was calculated assuming that the combined radioactivity in the substrate and product peaks was 100%. Initial velocities were computed by converting the percentage of radioactivity in the product peak by the specific radioactivity of the starting material to generate pmoles/min.

[5] = target: COX-1 (Ovis aries (Sheep), UniProt P05979); assay: COX-1 assay (TMPD oxidation); assay type: biochemical, ram
Protocol: The purity of the enzyme was assessed by SDS-PAGE. […] Reagents were mixed and incubated at 25° C. for 5 min followed by adding a mixture of TMPD and arachidonic acid to initiate the reaction. Specific activity was determined based on the initial velocity of the reduction of PGG2 formed in the reaction.
The effect of the compounds on COX-1 activity was determined by a continuous colorimetric assay that monitored the oxidation of N, N, N, N-tetramethyl-1,4-phenylenediamine (TMPD) when coupled to the COX catalyzed formation of PGH2 from PGG2 using arachidonic acid as substrate. […] Reagents were mixed and incubated at 25° C. for 5 min followed by adding a mixture of TMPD and arachidonic acid to initiate the reaction.

[6] = test system: LNCaP-AKR1C3 cells; assay: Radiometric assay of androgen metabolism; assay type: cell-based; settings: 100 nM Δ4-AD, 30 μM compound, 48 h
Protocol: LNCaP-AKR1C3 cells seeded at a density of 1.5×10^6 cells were plated in 6 well plates in CSS media. The cells were allowed to incubate for 24 h, after which the media was aspirated and fresh CSS media with 7.5 nM (1.26 μCi) of [^3H] Δ^4-AD and 92.5 nM of cold Δ^4-AD (to obtain a final concentration of 100 nM) was added in the presence and absence of 30 μM of compound 8a in each well. The cells were incubated for 48 h, after which time the media was collected for analysis (Byrns, et al., 2012, J. Steroid. Biochem. & Mol. Biol. 130:7-15). The media was extracted twice with cold ethyl acetate. In order to determine radioactivity of each phase, a portion of each fraction was added to Ultima Gold (Perkin Elmer Life Sciences) scintillation fluid and analyzed on a TriCarb 2100 (Packard Instruments, Perkin Elmer Life Sciences), all CPM counts were blank-adjusted and reported as corrected cpm. The aqueous phases were acidified to pH 6.5 with acetic acid and subjected to treatment with 400 U of E. coli β-glucuronidase at 37° C. for 24 h. The de-conjugated androgens were re-extracted as described elsewhere herein, dried in vacuum and re-dissolved in 100 μL ethyl acetate for separation on the multi-channel LK6D Silica TLC plates. Plates were developed using dichloromethane/ethyl acetate (80:20 v/v) and scanned on the BioScan 200 plate reader.

[7] = target: AKR1C1 (Homo sapiens (Human), UniProt Q04828); assay: S-tetralol oxidation assay, AKR1C1; assay type: biochemical
[8] = target: T2, AKR1C3; assay: AKR1C3 catalyzed reduction of Δ4-AD; assay type: biochemical; settings: E.NADPH.I complex; read-out: Ki, competitive inhibition of AKR1C3 catalyzed reduction of Δ4-AD
Source text: The ethyl acetate fraction was extracted and dried in vacuum.

[9] = test system: LNCaP-AKR1C3 cells; assay: Western blot of Δ4-AD induced PSA expression; assay type: cell-based; settings: 100 nM Δ4-AD, 30 μM compound
Protocol: LNCaP cells stably expressing AKR1C3 (LNCaP-AKR1C3 cells) (Byrns, et al., 2012, J. Steroid. Biochem. & Mol. Biol. 130:7-15) seeded at a density of 1.5×10^6 cells were plated in 6 cm dishes containing phenol red free RPMI-1640 media supplemented with 5% CDFBS, 1% Pen/Strep and 2 mM L-Glutamine (CSS media). The cells were incubated for 24 h after which media was aspirated and fresh CSS media containing 100 nM Δ^4-AD plus and minus inhibitors. The cells were incubated for 24 h after which they were harvested in RIPA lysis buffer supplemented with protease inhibitors at 4° C. Lysate protein concentration was determined by the Bradford assay using the BIORAD protein dye (Bio-Rad). The samples were subjected to electrophoresis on a 12% SDS-PAGE gel that was subsequently transferred to a nitrocellulose membrane. The membrane was probed with the appropriate antibodies as follows; anti β-tubulin (Millipore, #05-661) anti-PSA (Meridian Life Science, Inc., #K92110R). Blots were imaged using the ECL reagent (Pierce) and GelDoc XR+ System and Image Lab software (Bio-Rad).

[10] = NADP+ dependent oxidation of S-tetralol, S-tetralol at Km, Table 1
[11] = highest inhibitor concentration (100 μM) tested

COX-1, sequence (P05979 25-600): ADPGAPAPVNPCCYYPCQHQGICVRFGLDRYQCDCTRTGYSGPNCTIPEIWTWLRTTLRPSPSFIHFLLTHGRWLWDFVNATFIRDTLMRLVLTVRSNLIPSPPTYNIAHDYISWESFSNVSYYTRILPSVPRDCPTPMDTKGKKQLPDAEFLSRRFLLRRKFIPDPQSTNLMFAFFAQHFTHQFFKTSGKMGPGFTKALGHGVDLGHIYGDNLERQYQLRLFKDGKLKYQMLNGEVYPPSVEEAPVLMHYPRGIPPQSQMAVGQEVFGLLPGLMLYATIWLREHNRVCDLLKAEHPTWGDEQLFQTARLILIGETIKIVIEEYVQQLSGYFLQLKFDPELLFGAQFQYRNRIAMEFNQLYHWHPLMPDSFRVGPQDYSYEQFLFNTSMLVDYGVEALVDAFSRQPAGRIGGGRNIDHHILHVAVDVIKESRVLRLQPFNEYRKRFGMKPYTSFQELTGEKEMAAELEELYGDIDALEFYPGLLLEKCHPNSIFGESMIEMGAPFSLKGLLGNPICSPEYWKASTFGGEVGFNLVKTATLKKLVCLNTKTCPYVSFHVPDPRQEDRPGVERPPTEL
T2 sequence (P42330 whole entry): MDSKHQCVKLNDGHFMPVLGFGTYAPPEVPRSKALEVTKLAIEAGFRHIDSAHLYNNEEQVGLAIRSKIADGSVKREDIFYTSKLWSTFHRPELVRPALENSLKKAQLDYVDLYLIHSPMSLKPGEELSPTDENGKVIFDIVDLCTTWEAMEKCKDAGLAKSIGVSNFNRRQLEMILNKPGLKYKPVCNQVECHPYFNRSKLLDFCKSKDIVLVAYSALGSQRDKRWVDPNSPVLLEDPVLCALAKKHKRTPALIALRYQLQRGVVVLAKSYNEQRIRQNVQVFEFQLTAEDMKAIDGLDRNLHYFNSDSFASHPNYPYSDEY
T1 sequence (P52895 whole entry): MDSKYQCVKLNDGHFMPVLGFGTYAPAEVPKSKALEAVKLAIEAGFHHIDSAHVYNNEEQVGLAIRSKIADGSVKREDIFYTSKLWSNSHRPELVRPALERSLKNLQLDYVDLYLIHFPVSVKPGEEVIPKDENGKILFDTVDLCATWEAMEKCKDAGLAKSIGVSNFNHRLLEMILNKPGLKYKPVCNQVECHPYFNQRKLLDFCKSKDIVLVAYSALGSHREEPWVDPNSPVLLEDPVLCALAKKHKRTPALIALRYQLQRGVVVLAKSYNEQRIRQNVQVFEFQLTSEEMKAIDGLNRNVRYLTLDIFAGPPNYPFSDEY
COX-2, sequence (Q05769 18-604 limits assumed): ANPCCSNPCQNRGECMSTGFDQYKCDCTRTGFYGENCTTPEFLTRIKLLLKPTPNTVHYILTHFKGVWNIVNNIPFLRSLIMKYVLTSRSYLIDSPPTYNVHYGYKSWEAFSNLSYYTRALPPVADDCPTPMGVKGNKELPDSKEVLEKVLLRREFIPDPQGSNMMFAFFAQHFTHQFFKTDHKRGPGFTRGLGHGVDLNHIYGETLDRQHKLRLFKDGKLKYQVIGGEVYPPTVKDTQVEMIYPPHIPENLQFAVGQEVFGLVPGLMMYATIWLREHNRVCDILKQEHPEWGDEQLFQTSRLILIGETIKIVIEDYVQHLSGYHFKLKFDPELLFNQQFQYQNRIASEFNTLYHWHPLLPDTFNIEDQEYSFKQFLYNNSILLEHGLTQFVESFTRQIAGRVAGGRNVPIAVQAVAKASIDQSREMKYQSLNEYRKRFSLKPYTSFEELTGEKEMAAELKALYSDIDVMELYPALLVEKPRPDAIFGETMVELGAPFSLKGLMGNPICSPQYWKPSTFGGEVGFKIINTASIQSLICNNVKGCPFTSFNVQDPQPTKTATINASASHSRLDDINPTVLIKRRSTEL
AKR1C1, sequence (Q04828 whole entry, looked up): as the sequence (P52895 whole entry) above, with V38T, H47R, V54L, S87C, M151V, H170R, L172Q counted along it

With `CSc1ccc2cc([C@@H](C)C(=O)O)ccc2c1` [(R)-4a, 2(R)-(6-(methylthio)naphthalen-2-yl)propanoic acid] the IC50 [1] was 4.35 ± 0.61 µM and the IC50 [2, 10] was 50 ± 1.5 nM.
For `COc1ccc2cc(C(C)(C)C(=O)O)ccc2c1` [DimethylNaproxen 9, 2-(6-methoxynaphthalen-2-yl)-2-methylpropanoic acid], the IC50 [1] was 1.32 µM, the IC50 [2, 10] was 270 nM and the “Ratio IC50 value (AKR1C2/AKR1C3)” value ([2]; selectivity for AKR1C3 over AKR1C2, Table 1) was 5.
Work on `CCc1ccc2cc(C(C)C(=O)O)ccc2c1` (racemic) [LM5751(±) 2, 2-(6-Ethylnaphthalen-2-yl)propanoic Acid] yielded an IC50 [1] of 1.9 ± 0.11 µM and an IC50 [2, 10] of 120 ± 7.5 nM.
In the case of `CCOc1ccc2cc(C(C)C(=O)O)ccc2c1` (racemic) [LM5753(±) 3, 2-(6-Ethoxynaphthalen-2-yl)propanoic Acid], the IC50 [1] is reported as 2.4 ± 0.24 µM and the IC50 [2, 10] is reported as 100 ± 7.6 nM.
With `COc1ccc2cc([C@H](C)C(=O)O)ccc2c1` [S-Naproxen (1), (S)-2-(6-methoxynaphthalen-2-yl)propanoic acid, reference compound] the IC50 [1] was 1.26 ± 0.15 µM.
For `CC(C(=O)O)c1ccc2cc([S+](C)[O-])ccc2c1` (racemic) [LM5754(±) 5, 2-(6-(Methylsulfinyl)naphthalen-2-yl)propanoic Acid], the IC50 [1] was 6.3 ± 0.35 µM.
With `CCC(C(=O)O)c1ccc2cc(OC)ccc2c1` (racemic) [LM5750(±) 8, 2-(6-Methoxynaphthalen-2-yl)butanoic Acid] the “inhibitory activity on COX-2” value ([3]; maximum concentration of arachidonic acid tested as substrate (10 μM)) was “no inhibitory activity”, the IC50 [1] was 7.6 ± 0.95 µM and the IC50 ([2]; S-tetralol oxidation) was 120 nM.
`CC(C(=O)O)c1ccc2cc(S(C)(=O)=O)ccc2c1` (racemic) [LM5754(±) 6, 2-(6-(Methylsulfonyl)naphthalen-2-yl)propanoic Acid] showed an IC50 [1] of 3 ± 0.14 µM.
With `CC[C@@H](C(=O)O)c1ccc2cc(OC)ccc2c1` [LM5750B 8a, 2(R)-(6-methoxynaphthalen-2-yl)butanoic acid] the “inhibition of AKR1C2” value [4] was “did not display any significant inhibition”, the IC50 ([5]; arachidonic acid as substrate) was > 100 µM and the inhibition at 100 µM [5, 11] was < 20%. For the same compound, the “production of 3H-testosterone glucuronide” value [6] was “significantly inhibited”, the IC50 [1] was 46.4 µM and 48.1 µM and the IC50 [7] was 50 µM. For the same compound, the Ki [8] was 750 nM, the “Δ4-AD mediated increase in PSA expression” value [9] was “inhibited” and the Ki ([2]; E.NADP+.I complex, read-out: Ki, competitive inhibition of AKR1C3 catalyzed oxidation of S-tetralol) was 31 nM. The IC50 [2, 10] was 110 ± 10 nM, the “preference for the E.NADP+ complex” value ([2]; over E.NADPH complex) was 20 fold and the “pattern of AKR1C3 inhibition” value ([2]; oxidation of S-tetralol) was “competitively inhibited”.
`CSc1ccc2cc(C(C)C(=O)O)ccc2c1` (racemic) [LM5752(±) 4, 2-(6-(Methylthio)naphthalen-2-yl)propanoic Acid] was tested, and the IC50 [1] was 1.5 ± 0.14 µM, the IC50 ([2]; S-tetralol oxidation) was 60 nM and the “increase in the inhibitory potency for AKR1C3” value ([2]; over naproxen) was 3 fold.
For `COc1ccc2cc(CC(=O)O)ccc2c1` [DesmethylNaproxen 10, 2-(6-methoxynaphthalen-2-yl)acetic acid], the IC50 [1] was 19 ± 3.7 µM and the IC50 [2, 10] was 650 ± 110 nM.
For `COc1ccc2cc([C@@H](C)C(=O)O)ccc2c1` [R-Naproxen (1a), reference compound], the “inhibition of COX-1 activity” value [5, 11] was “less than 20%”, the IC50 ([3]; Table 2) was > 25 µM and the IC50 [1] was 2.75 µM.
`CCC(C(=O)NS(C)(=O)=O)c1ccc2cc(OC)ccc2c1` (racemic) [LM5885 (±) 7, 2-(6-Methoxynaphthalen-2-yl)-N-(methylsulfonyl)butanamide] gave an IC50 [1] of 34 µM.

Reference: patent publication US11459295B2, “2-beta-naphthyl-acetic acid analogs as AKR1C3 inhibitors and methods of using same” (THE TRUSTEES OF THE UNIVERSITY OF PENNSYLVANIA, priority 2015, dated 2022)
